Measured values reported in patent US20240417405A1, “Substituted Spiro Derivatives” (Janssen Pharmaceutica NV, priority 2021, published 2024).

Tests used:
[1] = molecular target: T1, menin/MLL (terbium chelate-labeled menin, FITC-MBM1 peptide) (Homo sapiens, UniProt O00255, T541A); assay: Menin/MLL homogenous time-resolved fluorescence (HTRF) assay; format: binding; settings: 30 min incubation
T1 construct: Menin (a.a 1-610-6xhis tag)
T1 sequence (O00255 with tags, fused parts or gaps T541A): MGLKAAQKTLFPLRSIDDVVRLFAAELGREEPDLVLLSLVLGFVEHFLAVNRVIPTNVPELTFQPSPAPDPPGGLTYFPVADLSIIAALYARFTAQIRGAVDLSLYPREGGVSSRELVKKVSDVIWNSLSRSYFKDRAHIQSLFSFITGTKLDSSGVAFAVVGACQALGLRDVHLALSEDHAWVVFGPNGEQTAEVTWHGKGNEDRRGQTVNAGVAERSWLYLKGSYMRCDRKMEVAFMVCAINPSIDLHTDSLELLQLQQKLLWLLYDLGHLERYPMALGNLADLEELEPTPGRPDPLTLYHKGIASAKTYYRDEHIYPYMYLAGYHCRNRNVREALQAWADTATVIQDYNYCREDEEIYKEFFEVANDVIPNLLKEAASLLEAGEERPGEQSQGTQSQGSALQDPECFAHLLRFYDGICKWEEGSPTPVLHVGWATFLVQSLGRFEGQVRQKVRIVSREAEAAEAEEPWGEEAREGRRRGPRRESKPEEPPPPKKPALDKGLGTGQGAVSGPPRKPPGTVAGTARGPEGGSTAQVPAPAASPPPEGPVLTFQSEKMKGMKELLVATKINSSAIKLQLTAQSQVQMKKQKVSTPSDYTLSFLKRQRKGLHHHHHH
Procedure, shortened: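 Percent inhibition, calculated from the 520/490 nm HTRF ratio against high and low controls, was fitted for IC50 with a 0.1 nM detection limit. Reactions held 200 pM Tb-menin and 75 nM FITC-MBM1 in pH 7.5 Tris buffer with 0.5% DMSO.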

[2] = test system: MOLM14 cells; assay: Proliferation assay, spheroid-like growth, MOLM14 (MLL-AF9 rearranged); format: cell-based, human; settings: Homo sapiens, MOLM-14, 192 h, 8 days, confluence as measure of spheroid size, read-out: spheroid assay_OneTime MOLM14 IC50
Procedure, shortened: (§1)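 Seed cells at linear-growth densities in low-attachment wells; add test compound at several concentrations, normalized to 0.3% DMSO; incubate 8 days at 37 °C; image spheroids and measure confluence; calculate absolute IC50 against DMSO and reference-compound controls.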

[3] = test system: KO-52 cells; assay: Proliferation assay, spheroid-like growth, KO-52 (MLL wildtype control cell line); format: cell-based, human; settings: Homo sapiens, 192 h, KO-52 control cells, 8 days, confluence as measure of spheroid size; read-out: spheroid assay_OneTime KO-52 IC50
Procedure, shortened: as §1

Structure (SMILES)	IC50 [1] [nM]	IC50 [2] [nM]	IC50 [3] [nM]
CC(C)[C@H]([C@H]1C[C@H](N2CC[C@H](C(C)(C)O)C2)C1)N1CC2(CCN(c3ncnnc3Oc3ccc(F)cc3-c3cncnc3C3CC3)C2)C1 (single isomer, unassigned) [Compound 69]	0.1	39	14000
CC(C)[C@H]([C@H]1C[C@@H](N2CC[C@@H](C(C)(C)O)C2)C1)N1CC2(CCN(c3ncnnc3Oc3ccc(F)cc3-c3cncnc3C3CC3)C2)C1 (single isomer, unassigned) [Compound 70]	0.1	4	5150
CC(C)[C@H]([C@H]1C[C@H](N2CC[C@@H](C(C)(C)O)C2)C1)N1CC2(CCN(c3ncnnc3Oc3ccc(F)cc3-c3cncnc3C3CC3)C2)C1 (single isomer, unassigned) [Compound 71]	0.1	60	9730
CC(C)[C@H]([C@H]1C[C@@H](N2CCC[C@H](O)C2)C1)N1CC2(CCN(c3ncnnc3Oc3ccc(F)cc3-c3cccnc3C3CC3)C2)C1 (single isomer, unassigned) [Compound 78]	2.9	630	4640
CC(=O)N1CCN([C@H]2C[C@@H]([C@@H](C(C)C)N3CC4(CCN(c5ncnnc5Oc5ccc(F)cc5-c5ncc(C#N)cc5C5CC5)C4)C3)C2)CC1 (single isomer, unassigned) [Compound 79]	0.3	240	3660
CC(C)[C@H]([C@H]1C[C@@H](N2CC3(COC3)C2)C1)N1CC2(CCN(c3ncnnc3Oc3ccc(F)cc3-c3cnncc3C3CC3)C2)C1 (single isomer, unassigned) [Compound 82]	0.4	300	> 15000
CC(C)[C@H]([C@H]1C[C@H](N2CC3(COC3)C2)C1)N1CC2(CCN(c3ncnnc3Oc3ccc(F)cc3-c3cnncc3C3CC3)C2)C1 (single isomer, unassigned) [Compound 83]	1.6	980	> 15000
CC(C)[C@H]([C@H]1C[C@@H](N2CC3(CCO3)C2)C1)N1CC2(CCN(c3ncnnc3Oc3ccc(F)cc3-c3cnncc3C3CC3)C2)C1 (single isomer, unassigned) [Compound 84]	5.5	220	> 15000
CC(C)[C@H]([C@H]1C[C@H](N2CC3(CCO3)C2)C1)N1CC2(CCN(c3ncnnc3Oc3ccc(F)cc3-c3cnncc3C3CC3)C2)C1 (single isomer, unassigned) [Compound 84a]	21.5	850	> 15000
CC(C)[C@@H]([C@H]1C[C@@H](N2CCC(O)C(F)C2)C1)N1CC2(CCN(c3ncnnc3Oc3ccc(F)cc3-c3cncnc3C3CC3)C2)C1 (single isomer, unassigned) [Compound 85]	25.4	1560	> 15000
CC1CN([C@H]2C[C@@H]([C@H](C(C)C)N3CC4(CCN(c5ncnnc5Oc5ccc(F)cc5-c5cncnc5C5CC5)C4)C3)C2)CCC1O (single isomer, unassigned) [Compound 87]	1.9	820	> 15000
CC(=O)N1CCN([C@H]2C[C@@H]([C@H](C(C)C)N3CC4(CCN(c5ncnnc5Oc5ccc(F)cc5-c5cccnc5C5CC5)C4)C3)C2)CC1 (single isomer, unassigned) [Compound 89]	0.2	20	6180
CC(C)[C@@H]([C@H]1C[C@@H](N(C)C)C1)N1CC2(CCN(c3ncnnc3Oc3ccc(F)cc3-c3cccnc3C3CC3)C2)C1 (single isomer, unassigned) [Compound 90]	0.1	2	540
CC(C)[C@@H]([C@H]1C[C@@H](N2CCN(C(=O)N(C)C)CC2)C1)N1CC2(CCN(c3ncnnc3Oc3ccc(F)cc3-c3cccnc3C3CC3)C2)C1 (single isomer, unassigned) [Compound 92]	0.1	7	780
CC(C)[C@@H]([C@H]1C[C@@H](N2CCC[C@@H](O)C2)C1)N1CC2(CCN(c3ncnnc3Oc3ccc(F)cc3-c3cccnc3C3CC3)C2)C1 (single isomer, unassigned) [Compound 93]	0.1	3	490
CC(C)[C@H]([C@H]1C[C@@H](N2CC3(COC3)C2)C1)N1CC2(CCN(c3ncnnc3Oc3ccc(F)cc3-c3ncc(C#N)cc3C3CC3)C2)C1 (single isomer, unassigned) [Compound 94]	0.1	25	3390
CC(=O)N1CCN([C@H]2C[C@@H]([C@H](C(C)C)N3CC4(CCN(c5ncnnc5Oc5ccc(F)cc5-c5ncc(C#N)cc5C5CC5)C4)C3)C2)CC1 (single isomer, unassigned) [Compound 96]	153	> 940	> 15000

More lines, main results first:

IC50 [1] [nM]	IC50 [2] [nM]	Structure (SMILES)	IC50 [3] [nM]
0.1	7	CC(C)[C@H]([C@H]1C[C@@H](N2CC[C@]3(CCN(C)C3=O)C2)C1)N1CC2(CCN(c3ncnnc3Oc3ccc(F)cc3-c3cncnc3C3CC3)C2)C1 (single isomer, unassigned) [Compound 67]	> 15000
0.1	5	CC(C)[C@H]([C@H]1C[C@@H](N2CC[C@H](C(C)(C)O)C2)C1)N1CC2(CCN(c3ncnnc3Oc3ccc(F)cc3-c3cncnc3C3CC3)C2)C1 (single isomer, unassigned) [Compound 68]	4410
43.2	> 940	CC(=O)N1CCN([C@H]2C[C@@H]([C@@H](C(C)C)N3CC4(CCN(c5ncnnc5Oc5ccc(F)cc5-c5cnncc5C5CC5)C4)C3)C2)CC1 (single isomer, unassigned) [Compound 80]	> 15000
2	280	CO[C@H]1CCN([C@H]2C[C@@H]([C@@H](C(C)C)N3CC4(CCN(c5ncnnc5Oc5ccc(F)cc5-c5cnncc5C5CC5)C4)C3)C2)C1 (single isomer, unassigned) [Compound 81]	> 15000
17.2	650	CC(C)[C@@H]([C@H]1C[C@H](N2CCC(O)C(F)C2)C1)N1CC2(CCN(c3ncnnc3Oc3ccc(F)cc3-c3cncnc3C3CC3)C2)C1 (single isomer, unassigned) [Compound 86]	> 15000
2.3	410	CC(C)[C@@H]([C@H]1C[C@@H](N2CCC(O)CC2)C1)N1CC2(CCN(c3ncnnc3Oc3ccc(F)cc3-c3cncnc3C3CC3)C2)C1 (single isomer, unassigned) [Compound 88]	> 15000
0.1	26	CC(C)[C@@H]([C@H]1C[C@H](N(C)C)C1)N1CC2(CCN(c3ncnnc3Oc3ccc(F)cc3-c3cccnc3C3CC3)C2)C1 (single isomer, unassigned) [Compound 91]	1030
0.1	210	CC(C)[C@H]([C@H]1C[C@H](N2CC3(COC3)C2)C1)N1CC2(CCN(c3ncnnc3Oc3ccc(F)cc3-c3ncc(C#N)cc3C3CC3)C2)C1 (single isomer, unassigned) [Compound 95]	11400
